Assay results reported in patent US11974987B2, “Monoacylglycerol lipase modulators for use in autism spectrum disorders” (Janssen Pharmaceutica NV, priority 2021, dated 2024).
pIC50: −log10 of the molar value. Where two headings read alike, the source gives them in different places.

How the values were obtained:
[1] = target: human MGL from HeLa cells (Homo sapiens (Human), UniProt Q99685); experiment: in vitro MGL activity assay ([glycerol-1,3-3H]-oleoyl glycerol cleavage); type: biochemical
Protocol: The assay consists of combining endogenously expressed MGL from HeLa cells with test compounds, adding [glycerol-1,3-^3H]-oleoyl glycerol, incubating for one hour, and then measuring the amount of cleaved [1,3-^3H]-glycerol that passes through an activated carbon filter. The amount of cleaved, tritiated glycerol passing through the carbon filter is proportional to the activity of the MGL enzyme in a particular well/test condition.
Standard conditions for this assay combine 300 nM [Glycerol-1,3-^3H]-oleoyl glycerol with human MGL from HeLa cells and test compounds for one hour, after which the reaction is filtered through activated carbon and tritium is measured in the flow through. […] MGL is the predominant hydrolase in HeLa cells/cell homogenates.

BTBR mice = experiment: Three-chamber sociability test in BTBR mice (autism model); type: in vivo, mouse; settings: 3 mg/kg p.o., 60 minutes before testing
Protocol: (§1) Biological Example 3. The behavioral effects of the compound of Example 78 were evaluated using an animal model of autism in a sociability assay after administration of the compound. The sociability assay was conducted using C57BL/6J mice (commerically available from the Jackon Laboratory, Bar Harbor, ME) as control, and BTBR T^+ Itpr3^tf/mice (referred herein as “BTBR”)(commerically available from the Jackon Laboratory, Bar Harbor, ME) as an autism model.
The BTBR mice used in Biological Example 3 was derived from the inbred strain BTBR (Black and Tan BRachyury) that carried the mutations a^t (nonagouti; black and tan), Itpr3^tf (inositol 1,4,5-triphosphate receptor 3; tufted), and T (brachyury). […] (Wahlsten D, 2003 Brain Res). […] (McFarlane H G, 2008, Gen, Brain Behav; Moy S S, 2007, Behav Br Res, Scattoni M L, 2008, PLos). This strain of mice contains the Trem2S148E allele—a naturally occurring variant at position 48351151-48351152 on Chr 17 (rs108080490 and rs107649577; Ensembl GRCm38.p6). This TC to GA transition results in a serine to glutamic acid substitution at amino acid 148 (S148E).
(§2) Thirty (30) C57BL/6J female mice and thirty (30) BTBR female mice (7-8 weeks old) were used in Biological Example 3. Upon arrival, mice were group-housed (4-5/cage) and acclimated for at least 5 days prior to commencing studies. Animals were maintained on a 12 hr light/dark cycle with room temperature maintained at 22±2° C. and approximately 50% humidity and had access to food and water ad libitum until the day before the experiment.
(§3) The two solutions listed in Table 4 were formulated fresh daily for p.o. administration. Both solutions comprise 20% 2-Hydroxypropyl-β-cyclodextrin (HP-3-CD). The solution containing Example 78 is in a concentration of 0.3 mg/mL.
(§4) Each type of mice is divided into two different treatment groups: those orally administered a Vehicle solution, and those orally administered with a solution of Example 78, both prepared according to Table 4 above. The mice were randomly assigned to treatment groups according to Table 5 below. Mice were administered the test article 60 minutes prior to testing.
(§5) Experiments were carried out in a gray plastic arena with two clear dividers creating three chambers (each 19 cm×45 cm). […] Two wire cup-like containers were placed in the corner of either end of the arena (right chamber and left chamber). These containers were used to house either stimulus or familiar mice. The arena was placed in a room with dim lighting (˜10 lux). Animals were brought into the room to acclimate for at least 1 hour prior to beginning experiment.
Initially, empty wire cups are placed into the right and left chambers. Each of the C57BL/6J or BTBR mouse was placed into the center chamber and allowed to habituate for 10 minutes to the arena. After the 10-minute habituation and with the animal still in the arena, a first stimulus mouse, which was subsequently considered a familiar mouse, was placed inside one of the wire cups in either the right or left chamber. In the other wire cup, a small object was placed. The placement of the stimulus mouse and small object switched sides across subjects. The C57BL/6J or BTBR mouse was allowed 10 minutes to explore all three chambers. A second stimulus mouse was subsequently placed in the wire cup in the opposite chamber. The first stimulus mouse was considered as familiar mouse. Again, the C57BL/6J or BTBR mouse was allowed 10 minutes to explore all three chambers.
During the latter 10-minute period, activity of each mouse was recorded and analyzed using the Noldus EthoVision™ software, which is a video tracking software that tracks and analyzes the behavior, movement. The following data were record and scored using activity of each mouse for:
(1) Duration and number of direct/active contacts between the test mouse and both wire cups (stimulus vs. familiar); Active contact was defined as mouse stretching towards wire cup within a 3-5 mm area around the cup; and […]

C57BL/6J mice = experiment: Three-chamber sociability test in C57BL/6J mice (control); type: in vivo, mouse; settings: C57BL/6 mice, 3 mg/kg p.o., 60 minutes before testing
Protocol: as §1, §2, §3, §4, §5
Initially, empty wire cups are placed into the right and left chambers. Each of the C57BL/6J or BTBR mouse was placed into the center chamber and allowed to habituate for 10 minutes to the arena. After the 10-minute habituation and with the animal still in the arena, a first stimulus mouse, which was subsequently considered a familiar mouse, was placed inside one of the wire cups in either the right or left chamber. In the other wire cup, a small object was placed. […]
During the latter 10-minute period, activity of each mouse was recorded and analyzed using the Noldus EthoVision™ software, which is a video tracking software that tracks and analyzes the behavior, movement. The following data were record and scored using activity of each mouse for: […]
Data were plotted and analyzed using GraphPad Prism (version 9.1.1) software. […]

[2] = 300 nM [Glycerol-1,3-3H]-oleoyl glycerol, one hour, read-out: MGL IC50

Sequence of human MGL from HeLa cells (Q99685 whole entry): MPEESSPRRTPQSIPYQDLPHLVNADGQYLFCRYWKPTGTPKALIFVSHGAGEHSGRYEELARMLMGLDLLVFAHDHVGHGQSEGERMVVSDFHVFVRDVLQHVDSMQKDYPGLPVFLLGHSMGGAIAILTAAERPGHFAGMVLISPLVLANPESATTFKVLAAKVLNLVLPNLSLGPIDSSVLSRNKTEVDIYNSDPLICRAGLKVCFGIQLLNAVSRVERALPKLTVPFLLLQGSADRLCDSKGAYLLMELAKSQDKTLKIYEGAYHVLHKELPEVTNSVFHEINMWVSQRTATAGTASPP

In the case of O=C1CC[C@]2(C[C@H](C(=O)N3CCC4(c5ccc(OC(F)(F)F)cc5)CC4C3)C2)N1 (mixture of isomers) [Example 55, (rac)-(2r,4s)-2-(6-(4-(Trifluoromethoxy)phenyl)-3-azabicyclo[4.1.0]heptane-3-carbonyl)-5-azaspiro[3.4]octan-6-one], the pIC50 [1, 2] was 8.00.

For O=C1CC[C@]2(C[C@H](C(=O)N3CC[C@]4(c5cccc(OC(F)(F)F)c5)C[C@@H]4C3)C2)N1 (stereo in doubt) [Example 120, (2r,4*R)-2-((1*S,6*R)-6-(3-(Trifluoromethoxy)phenyl)-3-azabicyclo[4.1.0]heptane-3-carbonyl)-5-azaspiro[3.4]octan-6-one], the pIC50 [1, 2] was 7.64.

Compound O=C1CC[C@]2(C[C@H](C(=O)N3CC[C@@]4(c5ccc(OC(F)(F)F)cc5)C[C@H]4C3)C2)N1 (stereo in doubt) [Example 121, (2r,4*S)-2-((1*R,6*S)-6-(4-(Trifluoromethoxy)phenyl)-3-azabicyclo[4.1.0]heptane-3-carbonyl)-5-azaspiro[3.4]octan-6-one] has a pIC50 [1, 2] of 7.38.

With Cc1cccc([C@]23CCN(C(=O)[C@H]4C[C@]5(COC(=O)N5)C4)C[C@H]2C3)c1 (relative stereo) [Example 44, (2s,4*R)-2-((1*S,6*R)-6-(m-Tolyl)-3-azabicyclo[4.1.0]heptane-3-carbonyl)-7-oxa-5-azaspiro[3.4]octan-6-one] the pIC50 [1, 2] was 8.55.

For O=C1CC[C@]2(C[C@H](C(=O)N3CC[C@@]4(c5cccc(OC(F)(F)F)c5)C[C@H]4C3)C2)N1 (stereo in doubt) [Example 119, (2r,4*S)-2-((1*R,6*S)-6-(3-(Trifluoromethoxy)phenyl)-3-azabicyclo[4.1.0]heptane-3-carbonyl)-5-azaspiro[3.4]octan-6-one], the pIC50 [1, 2] was 8.28.

For CC(C)(C)c1cccc([C@H]2[C@@H]3CN(C(=O)[C@H]4C[C@]5(COC(=O)N5)C4)C[C@@H]32)c1 [Example 78, (2s,4S)-2-((1R,5S,6S)-6-(3-(tert-Butyl)phenyl)-3-azabicyclo[3.1.0]hexane-3-carbonyl)-7-oxa-5-azaspiro[3.4]octan-6-one], the “Mean Diff., amount of time spent exploring familiar mouse chamber and stimulus mouse chamber (Bonferroni's multiple comparisons test)” value (BTBR mice) was −40.36, the “Mean Diff., amount of time spent interacting with familiar mouse or stimulus mouse (Bonferroni's multiple comparisons test)” value (BTBR mice) was −5.578 and the “Mean Diff., number of entries into familiar mouse chamber and stimulus mouse chamber (Bonferroni's multiple comparisons test)” value (BTBR mice) was 4.133. For the same compound, the “Mean Diff., number of interactions with familiar mouse or stimulus mouse (Bonferroni's multiple comparisons test)” value (BTBR mice) was −47.07, the “preference to familiar mouse over stimulus mouse (FIGS. 1C and 1D)” value (BTBR mice) was “did not show preference to familiar mouse over stimulus mouse” and the “social interaction (interest in social novelty) as compared to BTBR mice treated with placebo” value (BTBR mice) was “improved social interaction”. The “Mean Diff., amount of time spent exploring familiar mouse chamber and stimulus mouse chamber (Bonferroni's multiple comparisons test)” value (C57BL/6J mice) was −23.01, the “Mean Diff., amount of time spent interacting with familiar mouse or stimulus mouse (Bonferroni's multiple comparisons test)” value (C57BL/6J mice) was 2.873 and the “Mean Diff., number of entries into familiar mouse chamber and stimulus mouse chamber (Bonferroni's multiple comparisons test)” value (C57BL/6J mice) was 8.133. For the same compound, the “Mean Diff., number of interactions with familiar mouse or stimulus mouse (Bonferroni's multiple comparisons test)” value (C57BL/6J mice) was 37.87.

In the case of O=C1CC[C@]2(C[C@H](C(=O)N3CCC4(c5cccc(OC(F)(F)F)c5)CC4C3)C2)N1 (mixture of isomers) [Example 52, (rac)-(2r,4s)-2-(6-(3-(Trifluoromethoxy)phenyl)-3-azabicyclo[4.1.0]heptane-3-carbonyl)-5-azaspiro[3.4]octan-6-one], the pIC50 [1] was 8.32.

Work on O=C1CC[C@]2(C[C@H](C(=O)N3CCC4(c5ccc(C(F)(F)F)cc5)CC4C3)C2)N1 (mixture of isomers) [Example 59, (rac)-(2r,4s)-2-(6-(4-(Trifluoromethyl)phenyl)-3-azabicyclo[4.1.0]heptane-3-carbonyl)-5-azaspiro[3.4]octan-6-one] yielded a pIC50 [1, 2] of 7.74.

Compound O=C1CC[C@]2(C[C@H](C(=O)N3CC[C@]4(c5ccc(OC(F)(F)F)cc5)C[C@@H]4C3)C2)N1 (stereo in doubt) [Example 122, (2r,4*R)-2-((1*S,6*R)-6-(4-(Trifluoromethoxy)phenyl)-3-azabicyclo[4.1.0]heptane-3-carbonyl)-5-azaspiro[3.4]octan-6-one] has a pIC50 [1, 2] of 7.92.

For CC(C)c1cccc([C@H]2[C@@H]3CN(C(=O)[C@H]4C[C@]5(COC(=O)N5)C4)C[C@@H]32)c1 [Example 84, (2s,4S)-2-((1R,5S,6S)-6-(3-Isopropylphenyl)-3-azabicyclo[3.1.0]hexane-3-carbonyl)-7-oxa-5-azaspiro[3.4]octan-6-one], the pIC50 [1, 2] was 8.26.
